From patent US20230183292A1, “IMMUNOMODULATORS” (priority 2020, published 2023)
pIC50: −log10 of the molar value. Starred links: 1 amine or outer side, 2 acyl side, 3 side chain; linkers in the order of their positions; H or OH if unused. Positions of bridges follow the written chain, without caps; N, C: chain ends. Non-standard residues stand in square brackets, D forms with d. Residues, ends and D or L forms follow the SMILES beside them. Groups on a side chain read outwards from the residue. *: point of attachment. X3 = C[C@H](CCC(=O)O)[C@H]1CC[C@H]2[C@@H]3C(=O)C[C@@H]4CC(NC[C@H](N[*:1])C(=O)[*:2])CC[C@]4(C)[C@H]3CC(=O)[C@]12C; X21 = CC[C@H]1[C@@H](O)[C@@H]2[C@H](CC[C@]3(C)[C@@H]([C@H](C)CCC(=O)*)CC[C@@H]23)[C@@]2(C)CC[C@@H](O)C[C@@H]12; Chenodeoxycholyl = C[C@H](CCC(=O)*)[C@H]1CC[C@H]2[C@@H]3[C@H](O)C[C@@H]4C[C@H](O)CC[C@]4(C)[C@H]3CC[C@]12C; Cholyl = C[C@H](CCC(=O)*)[C@H]1CC[C@H]2[C@@H]3[C@H](O)C[C@@H]4C[C@H](O)CC[C@]4(C)[C@H]3C[C@H](O)[C@]12C; Dehydrocholoyl = C[C@H](CCC(=O)*)[C@H]1CC[C@H]2[C@@H]3C(=O)C[C@@H]4CC(=O)CC[C@]4(C)[C@H]3CC(=O)[C@]12C; X24 = C[C@H](CCC(=O)*)[C@H]1CC[C@H]2[C@@H]3[C@H](O)[C@H](O)[C@@H]4C[C@H](O)CC[C@]4(C)[C@H]3CC[C@]12C; X23 = C[C@H](CCC(=O)*)[C@H]1CC[C@H]2[C@@H]3C(=O)[C@H](O)[C@@H]4C[C@H](O)CC[C@]4(C)[C@H]3CC[C@]12C; X35 = O=C(Cn1cc(C[C@H](N[*:1])C(=O)[*:2])c2ccccc21)NCC(F)(F)F; X22 = O=C(Cn1cc(C[C@H](N[*:1])C(=O)[*:2])c2ccccc21)NCCC1CC1; Trp(1-CH2CO2Me) = COC(=O)Cn1cc(C[C@H](N)C(=O)O)c2ccccc21; Trp(1-CH2COOH) = N[C@@H](Cc1cn(CC(=O)O)c2ccccc12)C(=O)O; Pro(4R-Me) = C[C@H]1CN[C@H](C(=O)O)C1; Hyp = O=C(O)[C@@H]1C[C@@H](O)CN1; NMeNle = CCCC[C@H](NC)C(=O)O; NMeA = CN[C@@H](C)C(=O)O; Dab = NCC[C@H](N)C(=O)O; Dap = NC[C@H](N)C(=O)O

These molecules were tested against T1, PD-1/PD-L1 (Homo sapiens, UniProt Q9NZQ7) (assay: PD-1/PD-L1 Homogenous Time-Resolved Fluorescence (HTRF) binding assay). Settings: PD-L1-His 10 nM, PD-1-Ig 20 nM; read-out: HTRF IC50.
T1 construct: TVMV protease site (C); made in house; host or cells: HEK293T cells
Description: The ability of the compounds of formula (I) to bind to PD-L1 was investigated using a PD-1/PD-L1 Homogenous Time-Resolved Fluorescence (HTRF) binding assay.
The interaction of PD-1 and PD-L1 can be assessed using soluble, purified preparations of the extracellular domains of the two proteins. The PD-1 and PD-L1 protein extracellular domains were expressed as fusion proteins with detection tags, for PD-1, the tag was the Fc portion of Immunoglobulin (PD-1-Ig) and for PD-L1 it was the 6 histidine motif (PD-L1-His). All binding studies were performed in an HTRF assay buffer consisting of dPBS supplemented with 0.1% […] bovine serum albumin and 0.05% (v/v) Tween-20. For the h/PD-L1-His binding assay, inhibitors were pre-incubated with PD-L1-His (10 nM final) for 15 m in 4 μl of assay buffer, followed by addition of PD-1-Ig (20 nM final) in 1 μl of assay buffer and further incubation for 15 m. HTRF detection was achieved using europium crypate-labeled anti-Ig (1 nM final) and allophycocyanin (APC) labeled anti-His (20 nM final). Antibodies were diluted in HTRF detection buffer and 5 μl was dispensed on top of the binding reaction. The reaction mixture was allowed to equilibrate for 30 minutes and the resulting signal (665 nm/620 nm ratio) was obtained using an EnVision fluorometer. Additional binding assays were established between the human proteins PD-1-Ig/PD-L2-His (20 & 5 nM, respectively) and CD80-His/PD-L1-Ig (100 & 10 nM, respectively).
Recombinant Proteins: Human PD-1 (25-167) with a C-terminal human Fc domain of immunoglobulin G (Ig) epitope tag [hPD-1 (25-167)-3S-IG] and human PD-L1 (18-239) with a C-terminal His epitope tag [hPD-L1(18-239)-TVMV-His] were expressed in HEK293T cells and purified sequentially by ProteinA affinity chromatography and size exclusion chromatography. Human PD-L2-His and CD80-His was obtained through commercial sources.
Table 1 lists the IC50 values for representative examples of this disclosure measured in the PD-1/PD-L1 Homogenous Time-Resolved Fluorescence (HTRF) binding assay.

T1 sequence (Q9NZQ7 18-239): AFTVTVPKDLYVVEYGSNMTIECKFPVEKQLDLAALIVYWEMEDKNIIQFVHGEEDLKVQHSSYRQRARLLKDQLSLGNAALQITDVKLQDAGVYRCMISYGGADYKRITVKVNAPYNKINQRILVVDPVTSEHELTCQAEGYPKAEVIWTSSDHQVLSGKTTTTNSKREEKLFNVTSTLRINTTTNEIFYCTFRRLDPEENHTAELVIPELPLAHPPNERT

SMILES | pIC50
CCCC[C@H]1C(=O)N(C)[C@@H](CCCC)C(=O)N[C@@H](CC(C)C)C(=O)N[C@H](C(=O)NCC(N)=O)CSCC(=O)N[C@@H](Cc2ccc(O)cc2)C(=O)N(C)[C@@H](C)C(=O)N[C@@H](CC(N)=O)C(=O)N2CCC[C@H]2C(=O)N[C@@H](CNC(=O)CC[C@@H](C)[C@H]2CC[C@H]3[C@@H]4C(=O)C[C@@H]5CC(=O)CC[C@]5(C)[C@H]4CC(=O)[C@]23C)C(=O)N[C@@H](CC(C)C)C(=O)N2C[C@H](O)C[C@H]2C(=O)N[C@@H](Cc2c[nH]c3ccccc23)C(=O)N[C@@H](CCNC(=O)CC[C@@H](C)[C@H]2CC[C@H]3[C@@H]4C(=O)C[C@@H]5CC(=O)CC[C@]5(C)[C@H]4CC(=O)[C@]23C)C(=O)N[C@@H](Cc2cn(CC(=O)NCC(F)(F)F)c3ccccc23)C(=O)N1C [Example 2018] ({CH2CO}-Y[NMeA]NP[Dap](Dehydrocholoyl)L[Hyp]W[Dab](Dehydrocholoyl)[X35][NMeNle][NMeNle]LCG-NH2; thioether N-14) | 7.77
CCCC[C@H]1C(=O)N(C)[C@@H](CCCC)C(=O)N[C@@H](CC(C)C)C(=O)N[C@H](C(=O)NCC(N)=O)CSCC(=O)N[C@@H](Cc2ccc(O)cc2)C(=O)N(C)[C@@H](C)C(=O)N[C@@H](CC(N)=O)C(=O)N2CCC[C@H]2CN[C@@H](CNC(=O)CC[C@@H](C)[C@H]2CC[C@H]3[C@@H]4[C@H](O)C[C@@H]5C[C@H](O)CC[C@]5(C)[C@H]4C[C@H](O)[C@]23C)C(=O)N[C@@H](CC(C)C)C(=O)N2C[C@H](O)C[C@H]2C(=O)N[C@@H](Cc2c[nH]c3ccccc23)C(=O)N[C@@H](CCNC(=O)CC[C@@H](C)[C@H]2CC[C@H]3[C@@H]4[C@H](O)C[C@@H]5C[C@H](O)CC[C@]5(C)[C@H]4C[C@H](O)[C@]23C)C(=O)N[C@@H](Cc2cn(CC(=O)OCCCO)c3ccccc23)C(=O)N1C [Example 2004] | 6.46
CCCC[C@H]1C(=O)N(C)[C@@H](CCCC)C(=O)N[C@@H](CC(C)C)C(=O)N[C@H](C(=O)NCC(N)=O)CSCC(=O)N[C@@H](Cc2ccc(O)cc2)C(=O)N(C)[C@@H](C)C(=O)N[C@@H](CC(N)=O)C(=O)N2CCC[C@H]2C(=O)N[C@@H](CNC(=O)CNC(=O)CC[C@@H](C)[C@H]2CC[C@H]3[C@@H]4[C@H](O)C[C@@H]5C[C@H](O)CC[C@]5(C)[C@H]4C[C@H](O)[C@]23C)C(=O)N[C@@H](CC(C)C)C(=O)N2C[C@H](C)C[C@H]2C(=O)N[C@@H](Cc2c[nH]c3ccccc23)C(=O)N[C@@H](CCNC(=O)CNC(=O)CC[C@@H](C)[C@H]2CC[C@H]3[C@@H]4[C@H](O)C[C@@H]5C[C@H](O)CC[C@]5(C)[C@H]4C[C@H](O)[C@]23C)C(=O)N[C@@H](Cc2cn(CC(=O)NCCC3CC3)c3ccccc23)C(=O)N1C [Example 2028] ({CH2CO}-Y[NMeA]NP[Dap]([Gly-Cholyl])L[Pro(4R-Me)]W[Dab]([Gly-Cholyl])[X22][NMeNle][NMeNle]LCG-NH2; thioether N-14) | 6.18
CCCC[C@H]1C(=O)N(C)[C@@H](CCCC)C(=O)N[C@@H](CC(C)C)C(=O)N[C@H](C(=O)NCC(N)=O)CSCC(=O)N[C@@H](Cc2ccc(O)cc2)C(=O)N(C)[C@@H](C)C(=O)N[C@@H](CC(N)=O)C(=O)N2CCC[C@H]2C(=O)N[C@@H](CNC(=O)CC[C@@H](C)[C@H]2CC[C@H]3[C@@H]4C(=O)[C@H](O)[C@@H]5C[C@H](O)CC[C@]5(C)[C@H]4CC[C@]23C)C(=O)N[C@@H](CC(C)C)C(=O)N2C[C@H](O)C[C@H]2C(=O)N[C@@H](Cc2c[nH]c3ccccc23)C(=O)N[C@@H](CCNC(=O)CC[C@@H](C)[C@H]2CC[C@H]3[C@@H]4[C@H](O)[C@H](O)[C@@H]5C[C@H](O)CC[C@]5(C)[C@H]4CC[C@]23C)C(=O)N[C@@H](Cc2cn(CC(=O)O)c3ccccc23)C(=O)N1C [Example 1015] ({CH2CO}-Y[NMeA]NP[Dap](X23)L[Hyp]W[Dab](X24)[Trp(1-CH2COOH)][NMeNle][NMeNle]LCG-NH2; thioether N-14) | 8.03
CCCC[C@H]1C(=O)N(C)[C@@H](CCCC)C(=O)N[C@@H](CC(C)C)C(=O)N[C@H](C(=O)NCC(N)=O)CSCC(=O)N[C@@H](Cc2ccc(O)cc2)C(=O)N(C)[C@@H](C)C(=O)N[C@@H](CC(N)=O)C(=O)N2CCC[C@H]2C(=O)N[C@@H](CNC2CC[C@@]3(C)[C@H](CC(=O)[C@@H]4[C@@H]3CC(=O)[C@]3(C)[C@@H]([C@H](C)CCC(=O)O)CC[C@@H]43)C2)C(=O)N[C@@H](CC(C)C)C(=O)N2C[C@H](O)C[C@H]2C(=O)N[C@@H](Cc2c[nH]c3ccccc23)C(=O)N[C@@H](CCN)C(=O)N[C@@H](Cc2cn(CC(=O)O)c3ccccc23)C(=O)N1C (some centres unmarked) [Example 3005] ({CH2CO}-Y[NMeA]NP[X3]L[Hyp]W[Dab][Trp(1-CH2COOH)][NMeNle][NMeNle]LCG-NH2; thioether N-14) | 7.89
CCCC[C@H]1C(=O)N(C)[C@@H](CCCC)C(=O)N[C@@H](CC(C)C)C(=O)N[C@H](C(=O)NCC(N)=O)CSCC(=O)N[C@@H](Cc2ccc(O)cc2)C(=O)N(C)[C@@H](C)C(=O)N[C@@H](CC(N)=O)C(=O)N2CCC[C@H]2CN[C@@H](CNC(=O)CC[C@@H](C)[C@H]2CC[C@H]3[C@@H]4[C@H](O)C[C@@H]5C[C@H](O)CC[C@]5(C)[C@H]4C[C@H](O)[C@]23C)C(=O)N[C@@H](CC(C)C)C(=O)N2C[C@H](O)C[C@H]2C(=O)N[C@@H](Cc2c[nH]c3ccccc23)C(=O)N[C@@H](CCNC(=O)CC[C@@H](C)[C@H]2CC[C@H]3[C@@H]4[C@H](O)C[C@@H]5C[C@H](O)CC[C@]5(C)[C@H]4C[C@H](O)[C@]23C)C(=O)N[C@@H](Cc2cn(CC(=O)OC3CC3)c3ccccc23)C(=O)N1C [Example 2003] | 6.01
CCCC[C@H]1C(=O)N(C)[C@@H](CCCC)C(=O)N[C@@H](CC(C)C)C(=O)N[C@H](C(=O)NCC(N)=O)CSCC(=O)N[C@@H](Cc2ccc(O)cc2)C(=O)N(C)[C@@H](C)C(=O)N[C@@H](CC(N)=O)C(=O)N2CCC[C@H]2C(=O)N[C@@H](CNC(=O)CC[C@@H](C)[C@H]2CC[C@H]3[C@@H]4[C@H](O)[C@H](CC)[C@@H]5C[C@H](O)CC[C@]5(C)[C@H]4CC[C@]23C)C(=O)N[C@@H](CC(C)C)C(=O)N2C[C@H](O)C[C@H]2C(=O)N[C@@H](Cc2c[nH]c3ccccc23)C(=O)N[C@@H](CCNC(=O)CC[C@@H](C)[C@H]2CC[C@H]3[C@@H]4[C@H](O)[C@H](CC)[C@@H]5C[C@H](O)CC[C@]5(C)[C@H]4CC[C@]23C)C(=O)N[C@@H](Cc2cn(CC(=O)O)c3ccccc23)C(=O)N1C [Example 1014] ({CH2CO}-Y[NMeA]NP[Dap](X21)L[Hyp]W[Dab](X21)[Trp(1-CH2COOH)][NMeNle][NMeNle]LCG-NH2; thioether N-14) | 6.47
CCCC[C@H]1C(=O)N(C)[C@@H](CCCC)C(=O)N[C@@H](CC(C)C)C(=O)N[C@H](C(=O)NCC(N)=O)CSCC(=O)N[C@@H](Cc2ccc(O)cc2)C(=O)N(C)[C@@H](C)C(=O)N[C@@H](CC(N)=O)C(=O)N2CCC[C@H]2C(=O)N[C@@H](CNC(=O)CC[C@@H](C)[C@H]2CC[C@H]3[C@@H]4[C@H](O)C[C@@H]5C[C@H](O)CC[C@]5(C)[C@H]4CC[C@]23C)C(=O)N[C@@H](CC(C)C)C(=O)N2C[C@H](O)C[C@H]2C(=O)N[C@@H](Cc2c[nH]c3ccccc23)C(=O)N[C@@H](CCNC(=O)CC[C@@H](C)[C@H]2CC[C@H]3[C@@H]4[C@H](O)C[C@@H]5C[C@H](O)CC[C@]5(C)[C@H]4CC[C@]23C)C(=O)N[C@@H](Cc2cn(CC(=O)OC)c3ccccc23)C(=O)N1C [Example 1005] ({CH2CO}-Y[NMeA]NP[Dap](Chenodeoxycholyl)L[Hyp]W[Dab](Chenodeoxycholyl)[Trp(1-CH2CO2Me)][NMeNle][NMeNle]LCG-NH2; thioether N-14) | 5.08
